In ChEMBL document CHEMBL1201862, “PubChem BioAssay data set” (2004):
Activity calls are given as the source filed them.

Experiments:
[1] = target: T1, Replicative DNA helicase DnaB (Mycobacterium tuberculosis, UniProt P9WMR3); assay: DnaB intein splicing inhibitors, dose response, biochemical, cell-free fluorescence (AID 449749); assay type: functional
T1 sequence (P9WMR3 whole entry): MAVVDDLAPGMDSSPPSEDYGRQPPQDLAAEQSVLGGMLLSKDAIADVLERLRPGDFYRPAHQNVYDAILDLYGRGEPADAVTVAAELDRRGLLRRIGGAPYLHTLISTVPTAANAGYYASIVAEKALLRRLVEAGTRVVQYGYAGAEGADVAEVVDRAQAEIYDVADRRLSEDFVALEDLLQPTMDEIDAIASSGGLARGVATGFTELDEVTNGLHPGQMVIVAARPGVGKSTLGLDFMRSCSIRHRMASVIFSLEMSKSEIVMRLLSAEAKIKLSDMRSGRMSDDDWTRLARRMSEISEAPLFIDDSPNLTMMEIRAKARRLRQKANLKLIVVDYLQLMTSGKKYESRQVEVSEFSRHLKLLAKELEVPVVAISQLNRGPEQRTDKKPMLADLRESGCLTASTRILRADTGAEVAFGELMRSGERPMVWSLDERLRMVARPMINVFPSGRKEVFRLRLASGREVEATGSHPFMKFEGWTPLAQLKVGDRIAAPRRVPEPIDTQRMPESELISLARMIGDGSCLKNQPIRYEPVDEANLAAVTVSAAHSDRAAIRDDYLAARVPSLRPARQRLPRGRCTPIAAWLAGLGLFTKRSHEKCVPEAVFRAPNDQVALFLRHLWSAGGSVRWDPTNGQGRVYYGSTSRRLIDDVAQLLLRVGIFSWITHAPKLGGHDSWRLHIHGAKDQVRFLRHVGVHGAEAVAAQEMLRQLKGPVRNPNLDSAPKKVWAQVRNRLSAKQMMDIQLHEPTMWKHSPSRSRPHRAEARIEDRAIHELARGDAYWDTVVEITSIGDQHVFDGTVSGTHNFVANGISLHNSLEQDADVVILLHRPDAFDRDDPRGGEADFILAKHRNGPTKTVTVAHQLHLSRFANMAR

[2] = viability of uninfected HEp-2 cells – cell-based, HTS, cytotoxicity control for RSV inhibitor project, dose response (AID 2410); assay type: functional; conditions: human respiratory syncytial virus
[3] = Intein inhibitors as potential Tuberculosis drugs, a cytotoxicity screen. [Related pubchem assays (depositor defined):AID2221, AID2223, AID434968, AID435010, AID449749, AID449750, AID489010]; assay type: functional
[4] = blockade of melanocortin 4 receptor signaling – cell-based, plate reader, cherry pick, counter-screen for LGR2 antagonist project, dose response (AID 743444); assay type: functional;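 further: transfected HEK 293 cells stimulated with alpha-MSH peptide; potency of inhibitors of the alpha-MSH evoked signal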
[5] = viability loss in HEK293 cells – cell-based, plate reader, cherry-picked samples, cytotoxicity control, dose response (AID 743446); assay type: functional
[6] = toxicity toward HepG2 liver cells – cell-based, plate reader, cherry-pick, antagonist series, cytotoxicity control, dose response (AID 743416); assay type: functional
[7] = target: T2, Protein RecA (Mycobacterium tuberculosis, UniProt P9WHJ3); assay: Fluorescence Cell-Free Homogeneous Dose Retest to Identify Inhibitors of RecA-Intein Splicing Activity. [Related pubchem assays (depositor defined):AID2097, AID2223, AID489010, AID492950]; assay type: functional
T2 sequence (P9WHJ3 whole entry): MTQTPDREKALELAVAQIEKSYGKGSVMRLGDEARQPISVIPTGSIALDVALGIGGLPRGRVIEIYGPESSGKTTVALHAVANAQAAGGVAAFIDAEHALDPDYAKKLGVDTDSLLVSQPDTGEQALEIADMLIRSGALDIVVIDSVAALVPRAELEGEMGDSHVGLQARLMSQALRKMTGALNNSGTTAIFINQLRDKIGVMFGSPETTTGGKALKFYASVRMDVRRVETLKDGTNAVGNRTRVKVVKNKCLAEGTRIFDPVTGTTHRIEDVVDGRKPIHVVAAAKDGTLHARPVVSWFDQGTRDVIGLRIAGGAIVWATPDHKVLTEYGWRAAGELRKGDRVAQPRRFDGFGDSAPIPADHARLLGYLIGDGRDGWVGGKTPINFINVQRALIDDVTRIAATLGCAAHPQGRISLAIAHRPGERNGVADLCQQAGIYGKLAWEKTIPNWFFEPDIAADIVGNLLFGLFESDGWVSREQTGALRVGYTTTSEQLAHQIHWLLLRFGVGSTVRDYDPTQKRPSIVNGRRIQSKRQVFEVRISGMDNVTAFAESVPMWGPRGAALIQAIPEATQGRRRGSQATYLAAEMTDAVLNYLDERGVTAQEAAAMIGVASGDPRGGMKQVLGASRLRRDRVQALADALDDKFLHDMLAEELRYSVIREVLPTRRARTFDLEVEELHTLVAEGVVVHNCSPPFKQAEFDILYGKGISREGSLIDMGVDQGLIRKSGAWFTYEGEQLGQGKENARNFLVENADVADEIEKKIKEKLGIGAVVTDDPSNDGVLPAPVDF

[8] = A549 cell cytotoxicity, dose response, cytotoxicity control, plate reader, cherry-pick, antagonist series (AID 743412); assay type: functional, cell-based
[9] = blockers of bursicon-stimulated LGR2 cAMP reporter – cell-based, HEK293, CRE-luciferase reporter, cherry pick, set 2, dose response (AID 743343); assay type: functional;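 further: transfected cells were stimulated with diluted bursicon conditioned medium after compound addition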
[10] = luciferase reporter signal suppression in cells – H4 neuroglioma cells, luminescence, dose response (AID 1990); assay type: functional, cell-based
[11] = viability of HCT116 lacking mutant beta-catenin – cell-based, human colon tumor, dose response (AID 1045); assay type: functional;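 further: HCT116 colon tumor cells with beta catenin knocked out; cells exposed to compound for 60 hours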
[12] = alpha-synuclein stem-loop luciferase translation blockers – H4 neuroglioma cells, luminescence, confirmation (AID 1988); assay type: functional, cell-based
[13] = Luminescence Cell-Based Dose Response HTS to Identify Inhibitors of 5'UTR Stem-Loop Driven Prion Protein mRNA Translation in H4 Neuroglioblastoma Cells. [Related pubchem assays: 1827 (Project Summary), 1813 (Primary HTS)]; assay type: functional
[14] = test system: INS1; assay: INS-1E survival protection against cytokine death – cell-based, luminescence, retest, dose response (AID 449756); assay type: functional; conditions: Rattus norvegicus;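 further: cell death triggered by IL-1 beta plus TNF-alpha plus IFN-gamma mixture; protective hits raise ATP signal compared with cytokine alone wells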
[15] = viability of PTEN-deleted HCT116 cells – cell-based, HCT116 PTEN knockout, dose response (AID 1047); assay type: functional;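 further: HCT116 colon tumor cells with PTEN knocked out; cells exposed to compound for 60 hours before readout; potency for loss of cell viability measured by luminescence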
[16] = HGIII-sPLA2 enzyme inhibition potency – biochemical, QFRET, IC50, dose response (AID 743457);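 further: green fluorescence rise as the enzyme cleaves BODIPY PC-A2 in liposomes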
[17] = target: Alkaline phosphatase, placental type (Homo sapiens, UniProt P05187); assay: human placental alkaline phosphatase inhibition – biochemical, luminescence, confirmation (AID 1512); assay type: functional
Chain of Alkaline phosphatase, placental type (P05187 whole entry): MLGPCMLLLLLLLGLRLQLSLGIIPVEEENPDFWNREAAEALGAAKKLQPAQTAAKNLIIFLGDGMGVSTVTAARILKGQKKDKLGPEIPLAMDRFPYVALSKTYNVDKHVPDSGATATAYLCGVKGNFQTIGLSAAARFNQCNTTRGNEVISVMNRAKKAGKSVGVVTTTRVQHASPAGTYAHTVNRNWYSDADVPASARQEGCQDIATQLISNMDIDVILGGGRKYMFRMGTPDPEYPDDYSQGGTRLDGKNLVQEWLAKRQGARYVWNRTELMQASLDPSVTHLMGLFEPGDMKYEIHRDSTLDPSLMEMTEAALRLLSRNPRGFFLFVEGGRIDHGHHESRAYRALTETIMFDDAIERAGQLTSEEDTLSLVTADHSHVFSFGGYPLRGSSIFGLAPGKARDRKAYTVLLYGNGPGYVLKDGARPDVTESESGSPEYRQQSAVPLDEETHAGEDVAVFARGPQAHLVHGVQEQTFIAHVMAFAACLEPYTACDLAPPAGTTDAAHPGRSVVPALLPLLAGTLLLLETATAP

[18] = target: T3, Tyrosine-protein phosphatase non-receptor type 22 (Homo sapiens, UniProt Q9Y2R2); assay: SAR LYP1 Fluorescent Assay using OMFP substrate for In Vitro dose response studies - Set 3. [Related pubchem assays (depositor defined):AID1779, AID1784, AID2140, AID2686]; assay type: functional
T3 sequence (Q9Y2R2 whole entry): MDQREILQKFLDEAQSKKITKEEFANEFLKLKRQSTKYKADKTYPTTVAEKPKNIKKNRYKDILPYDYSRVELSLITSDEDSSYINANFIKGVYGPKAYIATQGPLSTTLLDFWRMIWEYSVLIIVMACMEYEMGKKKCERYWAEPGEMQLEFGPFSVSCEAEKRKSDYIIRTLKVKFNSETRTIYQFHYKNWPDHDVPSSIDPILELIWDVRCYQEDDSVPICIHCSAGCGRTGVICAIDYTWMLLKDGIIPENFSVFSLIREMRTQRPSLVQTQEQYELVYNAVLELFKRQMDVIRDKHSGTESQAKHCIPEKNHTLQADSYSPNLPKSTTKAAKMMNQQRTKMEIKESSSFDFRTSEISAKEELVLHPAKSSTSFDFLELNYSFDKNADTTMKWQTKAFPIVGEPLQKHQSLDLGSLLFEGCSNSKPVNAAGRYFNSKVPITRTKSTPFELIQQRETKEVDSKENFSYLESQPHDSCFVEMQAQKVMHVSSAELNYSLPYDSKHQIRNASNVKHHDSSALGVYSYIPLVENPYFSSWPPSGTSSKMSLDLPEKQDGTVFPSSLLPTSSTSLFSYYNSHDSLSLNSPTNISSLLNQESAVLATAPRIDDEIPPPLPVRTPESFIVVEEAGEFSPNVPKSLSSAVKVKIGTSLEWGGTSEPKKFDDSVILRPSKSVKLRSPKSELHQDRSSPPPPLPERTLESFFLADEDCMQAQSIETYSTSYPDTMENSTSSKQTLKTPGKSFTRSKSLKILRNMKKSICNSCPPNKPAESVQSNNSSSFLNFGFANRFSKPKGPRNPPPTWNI

[19] = target: T4, Tyrosine-protein phosphatase non-receptor type 12 (Homo sapiens, UniProt Q05209); assay: SAR Selectivity Analysis of small molecule inhibitors of PEST using pCAP in a fluorescence assay. [Related pubchem assays (depositor defined):AID1779, AID1784, AID2135]; assay type: functional
T4 sequence (Q05209 whole entry): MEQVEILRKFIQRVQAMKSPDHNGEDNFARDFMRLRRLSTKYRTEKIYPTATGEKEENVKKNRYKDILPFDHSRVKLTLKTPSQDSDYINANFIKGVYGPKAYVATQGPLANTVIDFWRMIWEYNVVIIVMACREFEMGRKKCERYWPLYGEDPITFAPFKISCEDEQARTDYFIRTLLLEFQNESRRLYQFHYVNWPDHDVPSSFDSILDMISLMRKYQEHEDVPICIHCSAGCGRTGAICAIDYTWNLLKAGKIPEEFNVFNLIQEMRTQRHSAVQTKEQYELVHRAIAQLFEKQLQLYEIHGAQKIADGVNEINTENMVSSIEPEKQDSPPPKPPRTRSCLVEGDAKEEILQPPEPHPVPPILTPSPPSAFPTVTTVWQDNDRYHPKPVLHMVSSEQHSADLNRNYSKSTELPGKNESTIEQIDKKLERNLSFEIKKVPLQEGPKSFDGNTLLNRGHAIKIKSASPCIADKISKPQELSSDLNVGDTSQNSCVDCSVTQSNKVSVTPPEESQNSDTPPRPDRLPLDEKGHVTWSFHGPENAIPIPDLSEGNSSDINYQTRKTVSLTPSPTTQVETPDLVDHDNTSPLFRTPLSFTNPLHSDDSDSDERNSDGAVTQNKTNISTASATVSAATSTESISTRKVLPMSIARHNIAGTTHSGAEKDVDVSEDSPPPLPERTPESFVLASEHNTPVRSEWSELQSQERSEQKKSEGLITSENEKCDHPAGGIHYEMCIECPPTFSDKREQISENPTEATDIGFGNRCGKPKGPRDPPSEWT

[20] = target: T3, Tyrosine-protein phosphatase non-receptor type 22; assay: SAR LYP1 Fluorescent Assay using pCAP substrate for In Vitro dose response studies - Set 2. [Related pubchem assays (depositor defined):AID1779, AID1784, AID2135, AID449727]; assay type: functional
[21] = target: T3, Tyrosine-protein phosphatase non-receptor type 22; assay: inhibition of lymphoid tyrosine phosphatase LYP – biochemical, pCAP fluorogenic substrate, fluorescence, set 3, SAR follow-up (AID 449727); assay type: functional
[22] = target: T3, Tyrosine-protein phosphatase non-receptor type 22; assay: PubChem AID 2135
[23] = target: T3, Tyrosine-protein phosphatase non-receptor type 22; assay: PubChem AID 2140
[24] = target: T5, Tyrosine-protein phosphatase non-receptor type 7 (Homo sapiens, UniProt P35236); assay: inhibition of hematopoietic tyrosine phosphatase HePTP – biochemical, set 2, SAR follow-up (AID 449736); assay type: functional
T5 sequence (P35236 whole entry): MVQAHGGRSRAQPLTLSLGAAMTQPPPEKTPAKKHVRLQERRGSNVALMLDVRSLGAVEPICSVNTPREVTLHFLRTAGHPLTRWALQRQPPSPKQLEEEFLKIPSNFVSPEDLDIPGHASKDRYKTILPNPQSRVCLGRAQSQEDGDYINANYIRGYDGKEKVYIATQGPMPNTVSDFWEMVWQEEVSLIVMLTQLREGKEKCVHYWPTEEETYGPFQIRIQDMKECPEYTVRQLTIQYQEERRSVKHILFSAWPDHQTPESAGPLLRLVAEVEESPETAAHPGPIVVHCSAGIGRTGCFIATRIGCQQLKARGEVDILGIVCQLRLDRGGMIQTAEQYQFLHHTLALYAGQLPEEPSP

[25] = target: T3, Tyrosine-protein phosphatase non-receptor type 22; assay: SAR LYP1 Fluorescent Assay using OMFP substrate for In Vitro dose response studies - Set 2. [Related pubchem assays (depositor defined):AID1779, AID1784, AID2140, AID449726, AID488869]; assay type: functional

Cc1sc2ncnc(Sc3nnnn3-c3ccccc3)c2c1C
AC50 [1]: 3.83 µM (active)
CC50 [2]: 11.2 µM (active)
CC50 [3]: 14.4 µM (active)
AC50 [4]: 3.94 µM (active)
AC50 [5]: 19.3 µM (active)
AC50 [6]: 15.4 µM (active)
EC50 [7]: 3.18 µM (active)
AC50 [8]: 10.9 µM (active)
AC50 [9]: 4.15 µM (active)

CCOC(=O)C1CCN(C(=O)c2c(C)oc3c2C(=O)c2ccccc2C3=O)CC1
EC50 [10]: > 120 µM (not active)
AC50 [1]: 2.06 µM (active)
CC50 [3]: 13.7 µM (active)
EC50 [11]: 3.32 µM (active)
EC50 [12]: 7.82 µM (active)
EC50 [13]: 18.3 µM (active)
AC50 [14]: 6.25 µM (active)
EC50 [15]: 3.87 µM (active)
EC50 [7]: 0.645 µM (active)

CCN=C(S)NN=C(S)NCc1ccccc1
IC50 [16]: > 122 µM (inactive)
IC50 [17]: > 100 µM (inactive)

CCOc1cc(/C=C(/C#N)c2cccc(F)c2)cc(Cl)c1OCc1ccc(C(=O)O)cc1
IC50 [18]: 34.6 µM (active)
IC50 [19]: 5.08 µM (active)
IC50 [20]: 36.1 µM (active)
IC50 [21]: 46.7 µM (active)
IC50 [22]: > 100 µM (inactive)
IC50 [23]: > 100 µM (inactive)
IC50 [24]: 2.25 µM (active)
IC50 [25]: 21.8 µM (active)
